Source: patent US10550102B2, “Indane and indoline derivatives and the use thereof as soluble guanylate cyclase activators” (NOVARTIS AG, priority 2014, dated 2020)
pEC50: −log10 of the molar value.

Biological target: soluble guanylate cyclase (human GUCYA3 and GUCYB3) overexpressed in CHO cells (Homo sapiens (Human), UniProt Q02108+Q02153)
Test: CHO cellular assay (cGMP production, Cisbio cGMP HTRF kit)
Type: cell-based
Conditions: CHO GUCY clone 8E10, cGMP production, assay buffer with 1 mM IBMX and 20 uM ODQ, 1 h room temperature; minimum quantification limit 0.5 nM (listed 0.5 nM means ≤0.5 nM); read-out: EC50
In short: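 EC50 was derived by 4-parameter sigmoidal fit of cGMP levels, read by HTRF against a standard curve. Compounds were applied for 1 h at room temperature, in buffer with 20 uM ODQ, 1 mM IBMX and 0.1% BSA (0.5% DMSO final). The cells were a stable CHO-K1 line (clone 8E10) overexpressing human GUCYA3 and GUCYB3, seeded at 3000/well.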

Sequence of soluble guanylate cyclase (human GUCYA3 and GUCYB3) overexpressed in CHO cells (Q02108 whole entry partner): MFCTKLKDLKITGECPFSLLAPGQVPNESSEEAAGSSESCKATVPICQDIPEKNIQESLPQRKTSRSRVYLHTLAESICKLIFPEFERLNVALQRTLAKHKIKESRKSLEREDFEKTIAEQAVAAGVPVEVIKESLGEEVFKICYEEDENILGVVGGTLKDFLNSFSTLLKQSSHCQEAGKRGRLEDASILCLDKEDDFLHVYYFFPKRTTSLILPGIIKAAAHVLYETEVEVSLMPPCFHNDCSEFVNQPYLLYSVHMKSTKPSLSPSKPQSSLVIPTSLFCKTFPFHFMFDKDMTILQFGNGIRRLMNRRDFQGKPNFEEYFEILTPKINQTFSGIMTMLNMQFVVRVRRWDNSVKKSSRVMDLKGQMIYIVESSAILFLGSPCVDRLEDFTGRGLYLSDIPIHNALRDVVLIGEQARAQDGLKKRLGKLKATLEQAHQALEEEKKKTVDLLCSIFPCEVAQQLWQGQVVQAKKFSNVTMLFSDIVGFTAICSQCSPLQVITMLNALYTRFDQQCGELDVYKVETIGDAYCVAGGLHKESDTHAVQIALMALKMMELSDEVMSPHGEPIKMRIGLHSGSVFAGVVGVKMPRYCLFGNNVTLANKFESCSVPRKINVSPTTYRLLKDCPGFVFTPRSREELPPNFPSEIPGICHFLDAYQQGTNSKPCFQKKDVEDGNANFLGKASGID
Sequence of soluble guanylate cyclase (human GUCYA3 and GUCYB3) overexpressed in CHO cells (Q02153 whole entry): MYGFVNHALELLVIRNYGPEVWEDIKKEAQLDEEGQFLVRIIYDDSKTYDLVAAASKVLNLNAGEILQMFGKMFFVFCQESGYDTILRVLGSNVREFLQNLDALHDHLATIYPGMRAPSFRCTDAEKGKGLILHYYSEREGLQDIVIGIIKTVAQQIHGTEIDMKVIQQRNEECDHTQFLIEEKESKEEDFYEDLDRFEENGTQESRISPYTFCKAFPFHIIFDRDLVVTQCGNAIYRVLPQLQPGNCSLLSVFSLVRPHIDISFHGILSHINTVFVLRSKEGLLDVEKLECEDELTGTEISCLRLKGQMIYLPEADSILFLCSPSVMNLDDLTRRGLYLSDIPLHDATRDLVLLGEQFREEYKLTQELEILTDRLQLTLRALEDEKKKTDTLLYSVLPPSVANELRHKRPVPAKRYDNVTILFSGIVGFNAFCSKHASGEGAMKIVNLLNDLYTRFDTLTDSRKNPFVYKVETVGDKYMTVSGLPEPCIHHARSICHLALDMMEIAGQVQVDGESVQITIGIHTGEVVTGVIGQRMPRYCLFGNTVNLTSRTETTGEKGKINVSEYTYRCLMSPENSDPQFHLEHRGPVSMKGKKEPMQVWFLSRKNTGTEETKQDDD

SMILES | pEC50
Cc1cc(C2CCN(C(=O)C3CC3)CC2)ccc1NC1CCc2cccc(-c3cccc(-n4ncc(C(=O)O)c4C(F)(F)F)c3)c21 (single isomer, unassigned; (-)) [Example 6. b). (−), (−)-1-(3-(3-((4-(1-(cyclopropanecarbonyl)piperidin-4-yl)-2-methylphenyl)amino)-2,3-dihydro-1H-inden-4-yl)phenyl)-5-(trifluoromethyl)-1H-pyrazole-4-carboxylic acid] | 7.62
Cc1c(C(=O)O)cnn1-c1cccc(-c2cccc3c2C(Nc2ccc(C4CCN(C(=O)C5CC5)CC4)cc2)CC3)n1 (single isomer, unassigned; (-)) [Example 9. b). (−), (−)-1-(6-(3-((4-(1-(cyclopropanecarbonyl)piperidin-4-yl)phenyl)amino)-2,3-dihydro-1H-inden-4-yl)pyridin-2-yl)-5-methyl-1H-pyrazole-4-carboxylic acid] | 6.74
CCc1c(C(=O)O)cnn1-c1cccc(-c2cccc3c2C(Nc2ccc(C4CCN(C(=O)C5CC5)CC4)cc2C)CC3)n1 (single isomer, unassigned; (-)) [Example 10b, (−)-1-(6-(3-((4-(1-(Cyclopropanecarbonyl)piperidin-4-yl)-2-methylphenyl)amino)-2,3-dihydro-1H-inden-4-yl)pyridin-2-yl)-5-ethyl-1H-pyrazole-4-carboxylic Acid] | 7.31
Cc1cc(C2CCN(C(=O)C3CC3)CC2)ccc1CC1CCc2cccc(-c3cccc(-n4ncc(C(=O)O)c4C)n3)c21 (single isomer, unassigned; (-)) [Example 37. b). (−), (−)-1-(6-(3-(4-(1-(cyclopropanecarbonyl)piperidin-4-yl)-2-methylbenzyl)-2,3-dihydro-1H-inden-4-yl)pyridin-2-yl)-5-methyl-1H-pyrazole-4-carboxylic Acid] | 8.20
CCc1cc(CC2CCc3cccc(-c4cccc(-n5ncc(C(=O)O)c5CC)n4)c32)ccc1C1CCN(C(=O)[C@H](C)O)CC1 (single isomer, unassigned; (-)) [Example 39. b). (−)] | 9.00
CCc1cc(CC2CCc3cccc(-c4cccc(-n5ncc(C(=O)O)c5CC)n4)c32)ccc1C1CCN(C(=O)OC)CC1 (single isomer, unassigned; (-)) [Example 41. b). (−), (−)-5-ethyl-1-(6-(3-(3-ethyl-4-(1-(methoxycarbonyl)piperidin-4-yl)benzyl)-2,3-dihydro-1H-inden-4-yl)pyridin-2-yl)-1H-pyrazole-4-carboxylic acid] | 7.74
CCc1c(C(=O)O)cnn1-c1cccc(-c2cccc3c2C(Cc2ccc(C4CCN(C(=O)OC)CC4)cc2C)CC3)n1 (single isomer, unassigned; (-)) [Example 42. b). (−), (−)-5-ethyl-1-(8-(3-(4-(1-(methoxycarbonyl)piperidin-4-yl)-2-methylbenzyl)-2,3-dihydro-1H-inden-4-yl)pyridin-2-yl)-1H-pyrazole-4-carboxylic acid] | 7.03

Now from value to molecule:

pEC50 | SMILES
8.62 | Cc1cc(C2CCN(C(=O)C3CC3)CC2)ccc1NC1CCc2cccc(-c3cccc(-n4ncc(C(=O)O)c4C)n3)c21 (single isomer, unassigned; (-)) [Example 7b, (−)-1-(6-(3-((4-(1-(Cyclopropanecarbonyl)piperidin-4-yl)-2-methylphenyl)amino)-2,3-dihydro-1H-inden-4-yl)pyridin-2-yl)-5-methyl-1H-pyrazole-4-carboxylic Acid]
8.41 | Cc1cc(C2CCN(C(=O)C3CC3)CC2)ccc1NC1COc2cccc(-c3cccc(-n4ncc(C(=O)O)c4C)n3)c21 (single isomer, unassigned; (-)) [Example 34b]
7.77 | Cc1cc(C2CCN(C(=O)[C@H](C)O)CC2)ccc1NC1COc2cccc(-c3cccc(-n4ncc(C(=O)O)c4C)n3)c21 (single isomer, unassigned; (-)) [Example 35b]
8.46 | Cc1cc(C2CCN(C(=O)C3CCC3)CC2)ccc1NC1CCc2cccc(-c3cccc(-n4ncc(C(=O)O)c4C)n3)c21 (single isomer, unassigned; (-)) [Example 45b]
